Experimental data reported in patent US8895598B2, “Methods of treating a flaviviridae family viral infection, compositions for treating a flaviviridae family viral infection, and screening assays for identifying compositions for treating a flaviviridae family viral infection” (priority 2007, dated 2014).
“Also recorded” adds a separate entry of the source. Structures can show the parent of a compound that is named as a salt. Where two headings read alike, the source gives them in different places.

Assays:
[1] = tested on: HCV RNA replication (full-length HCV RNA genome harboring a Luciferase reporter gene); test: Luciferase reporter-linked HCV replication assay in Huh7.5 cells; assay type: cell-based, Hepatitis C Virus; conditions: for activity at 5 µM / activity at 10 µM: Hepatitis C virus, Huh7.5
Description: For example, HCV replication assays employing a luciferase reporter-linked HCV genome in the presence of various combinations of clemizole and an NS3 protease inhibitor (SCH503034) are shown in FIGS. 1A and 1B. In such assays, luciferase activity is directly proportional to HCV RNA genome replication. […] The results can be plotted on a linear or log scale as a function of drug concentrations to generate replication inhibition curves.
Luciferase assays were performed at 72 hr.
Medium was changed daily.
The experiment was repeated four times, each time with triplicates.

[2] = molecular target: HuR binding to the consensus 4A RNA sequence (Homo sapiens, UniProt Q15717); test: Specificity: HuR binding to 4A RNA by microfluidics; conditions: hits at 0.1 mM
Description: Next a standard 25 μL TNT T7 coupled wheat germ extract mixture (Promega) was prepared and spiked with 1 μL tRNALys-bodipy-fl (Promega) and 2 μL of plasmid DNA template coding for the appropriate protein (HuR, HuD or Gus). The mixture was immediately loaded into the device and flushed for 5 min, after which the chamber valves were opened allowing for dead end filling of the chambers with wheat germ extract. The chamber valves were again closed and flushing continued for an additional 5 min. Next the segregation valves separating each unit cell were closed, followed by opening of the chamber valves allowing for equilibration of the unit cell by diffusion. The entire device was heated to 30° C. on a temperature controlled microscope stage and incubated for up to 90 min to complete protein synthesis, binding of protein to the surface bound biotinylated-5-histidine antibody, solvation of target RNA, and equilibration of proteins and target RNA. […] Radial closure prevents solvent pockets from forming between the two interfaces and effectively creates zero dead volume while preserving the equilibrium concentrations of the molecular interactions to be detected. This was followed by a 5 min PBS wash to remove untapped unbound material. The device was then imaged on a modified array WoRxe (AppliedPrecision) microarray scanner to detect protein synthesis and the trapped molecules. […]

[3] = molecular target: HuR binding to the 3′ terminus of the negative HCV RNA strand (Homo sapiens, UniProt Q15717); test: Specificity: HuR binding to the 3′ terminus of the negative HCV RNA strand; conditions: hits at 0.1 mM
Description: Specificity of hits identified in the small molecule screen: To determine the specificity of the hits identified in the small molecule screen, the HuR protein (one of the human RNA binding protein used to validate our RNA binding assay) was selected. […] Binding of HuR to the consensus 4A RNA sequence was tested in the presence of the inhibitory molecules shown to inhibit RNA binding by NS4B. […] Similarly, 0.1 mM of the identified compounds didn't have an inhibitory effect on binding of HuR to the 3′ terminus of the negative HCV RNA strand.

Huh7.5 cells = test: Alamar Blue-based viability assay; conditions: HCV-infected Huh7.5 cells, FIG. 15
Description: (§1) The in vivo antiviral effect on HCV RNA replication of the inhibitory compounds identified in the above screen was measured. Following electroporation with a full-length HCV RNA genome harboring a Luciferase reporter gene^28, Huh7.5 cells were grown in the presence of increasing concentrations of these compounds. Luciferase assays were performed at 72 hr. In parallel, the viability of cells in the presence of the compounds was assessed by an Alamar Blue-based assay.
(§2) Following 72 hrs of treatment, cells were incubated for 3 hrs at 37° C. in the presence of 10% Alamar Blue reagent (TREK Diagnostic Systems). Plates were then scanned and fluorescence was detected by using FLEXstation II 384 (Molecular Devices, Inc.).

[4] = tested on: infectious HCV clone (J6/JFH); assay type: cell-based, Hepatitis C Virus; conditions: FIG. 15, 72 hours
[5] = cited from earlier work
W55R mutant J6/JFH RNA = test: Replication assays with the clemizole-resistant W55R mutant; assay type: cell-based, Hepatitis C Virus
[6] = molecular target: T1, W55R NS4B mutant binding to HCV RNA (Hepatitis C virus genotype 1a, UniProt P27958, A1893V/D1840G/F1898S/L1839I/R1905H/S1900A/W1766R); test: Microfluidic in vitro RNA binding assay of W55R NS4B mutant; conditions: in the presence of 10 nM clemizole
T1 construct: made in house; host or cells: coupled transcription/translation rabbit reticulocyte system (Promega) with canine microsomal membranes

R214Q mutant HCV RNA = test: Luciferase reporter linked replication assay with the clemizole-resistant R214Q mutant; assay type: cell-based; conditions: Hepatitis C virus, read-out: EC50 on the R214Q mutant
[7] = molecular target: NS4B binding to the 3′ terminus of the HCV negative strand RNA (Hepatitis C virus genotype 1a, UniProt P27958); test: Microfluidic (MITOMI) in vitro RNA binding assay of NS4B
[8] = human, in vivo; cited from earlier work
HCV (genotype 4) = test: Treatment of patients chronically infected with HCV, serum HCV viral load; assay type: in vivo, human
Description: Three patients chronically-infected with HCV (genotype 4) were treated in accordance with an embodiment of the method of the invention. All were male and had baseline ALT elevations and significant HCV viral loads ranging from 290,000-730,000 IU/ml.
After the first four weeks of clemizole monotherapy, pegylated interferon was added.

[9] = guinea pig; cited from earlier work
[10] = Alamar Blue-based viability assay; conditions: human
Description: as §1, §2

[11] = read-out: AV (HCV RNA replication, percent of normal activity remaining)
[12] = read-out: AV score (binned residual HCV replication)
[13] = 40 to 160 mg/day, 1 to 12 weeks
[14] = 3 patients, clemizole 100 mg po BID monotherapy

| Compound | activity at 5 µM [1, 11] | activity at 5 µM [1, 12] | activity at 10 µM [1, 11] | activity at 10 µM [1, 12] | further results |
| --- | --- | --- | --- | --- | --- |
| Cc1nc2cc(Cl)ccc2n1Cc1ccccc1 | 87% | 60 to 90% | 60% | 60 to 90% | – |
| Cc1cc2ncn(Cc3ccc(Cl)cc3Cl)c2cc1C | 30% | 10 to 30% | 8% | 10 to 30% | – |
| Brc1ccc(Cn2cnc3ccccc32)cc1 | 23% | 10 to 30% | 8% | 10 to 30% | – |
| Cc1nc2ccccc2n1Cc1ccc(Br)cc1 | 3% | 10 to 30% | 2% | 10 to 30% | – |
| OCc1nc2ccccc2n1Cc1ccc(Br)cc1 | – | 30 to 60% | 28% | 10 to 30% | – |
| COC(=O)c1ccc(Cn2cnc3ccccc32)cc1 | 74% | 60 to 90% | 54% | 30 to 60% | – |
| CC(C)(C)c1ccc(Cn2cnc3ccccc32)cc1 | 30% | 10 to 30% | 12% | 10 to 30% | – |
| Cc1ccc(Cn2cnc3ccccc32)cc1 | 49% | 30 to 60% | 23% | 10 to 30% | – |
| COc1ccc(Cn2cnc3ccccc32)cc1 | 70% | 60 to 90% | 58% | 30 to 60% | – |
| O=C(O)C1=CC(=C(c2ccc(O)c(C(=O)O)c2)c2ccc(O)c(C(=O)O)c2)C=CC1=O [ATA, Aurintricarboxilic acid] | – | – | – | – | effect on binding of HuR to 4A RNA [2]: significantly inhibited; also recorded: affected; effect on binding of HuR to the 3′ terminus of the negative HCV RNA strand [3]: significantly inhibited |
| Clc1ccc(Cn2c(CN3CCCC3)nc3ccccc32)cc1 [Clemizole hydrochloride, clemizole hydrochloride, reference compound] | – | – | – | – | decrease in viral replication ([1]; 20 μM, 72 hr): tenfold |
| Clc1ccc(Cn2c(CN3CCCC3)nc3ccccc32)cc1 [clemizole] | – | – | – | – | toxicity to the cell in real-time PCR experiment (Huh7.5 cells): no measurable toxicity to the cell; HCV replication levels by real-time PCR [4]: inhibits HCV replication; patients reporting excellent relief of itching [5, 13]: 66%; patients reporting good relief of itching [5, 13]: 23%; patients with mild side effects (drowsiness most common) ([5]; human, in vivo): 4 patients; replication of W55R mutant in presence of clemizole (W55R mutant J6/JFH RNA; 10 μM clemizole, whole cell RNA (colonies) or in vitro-transcribed luciferase RNA): unaffected; EC50 (W55R mutant J6/JFH RNA; Hepatitis C virus, read-out: EC50 on the W55R mutant J6/JFH RNA): ~18 µM; reduction of RNA binding of W55R NS4B mutant [6]: ~2 fold; EC50 (R214Q mutant HCV RNA): 40.3 µM; effect on binding of HuR to 4A RNA [2]: No inhibitory effect; IC50 [7]: ~0.024 µM; reduction of RNA binding of wild type NS4B ([7]; in the presence of 10 nM clemizole): ~2 fold; drowsiness, share of the patients treated (Zierz and Greither) [8]: 1.3%; HCV viral load at week 2 (HCV (genotype 4); [14]): drops in HCV viral load; HCV viral load at week 4 (HCV (genotype 4); [14]): nearly at or below the limit of HCV detection; also recorded: completely, or nearly, undetectable; HCV viral load after 8 weeks (HCV (genotype 4); 4 weeks clemizole monotherapy plus 4 weeks clemizole with standard dose pegylated interferon): below the limit of detection; prevention of histamine-induced asthma [9]: superior to atropine and other antihistamines in preventing histamine-induced asthma; effect of adding clemizole to NS3 protease inhibitor SCH503034 on HCV replication ([1]; SCH503034 1-5 micromolar, 72 hours): increase the inhibition of HCV replication in a dose-dependent manner by up to several logs |
| Clc1ccc(Cn2c(CN3CCCC3)nc3ccccc32)cc1 [drawing 415] | 62% | 60 to 90% | 37% | 30 to 60% | viability at 72 h, 5 µM [10]: 107%; viability at 72 h, 10 µM [10]: 93% |
